Assay results: article PMC10850047, “Exploring the impact of PEGylation on pharmacokinetics: a size-dependent effect of polyethylene glycol on prostate-specific membrane antigen inhibitors” (EJNMMI Research, 2024)
Where two headings read alike, the source gives them in different places.

How the values were obtained:
[1] = test system: LNCaP tumors; test: Micro-PET/CT blocking experiment with 2-PMPA, LNCaP tumor model; type: in vivo, mice; settings: 40 nmol 2-PMPA 30 min before radioligand, static scan 60 min later
Procedure: (§1) To perform imaging studies, the male mice bearing LNCaP tumors were injected with the corresponding radioligand (~ 2.5 MBq; 100 μL) via their tail veins. The micro-PET/CT scans (Inveon PET, Siemens) were conducted at 10, 30, 60, and 120 min after injection. The mice were anesthetized and maintained under 2% isoflurane in oxygen at a flow rate of 2 L/min during the 2-h imaging study. First, a 10 min static PET imaging acquisition was carried out, followed by a 10 min CT scan for localization and attenuation correction. Data analysis was performed using Inveon Research Workplace software. For PC3-PIP tumor model, the imaging studies were performed with micro-PET/SPECT/CT (Inliview-3000B, Novel Medical). Data analysis was performed using Nmsoft-Al ws v1.7–1 software.
(§2) To evaluate the specificity of radioligands, blocking experiments were performed. In brief, 40 nmol of the PSMA inhibitor 2-PMPA was administered, followed by the injection of approximately 2.6 MBq of radioligands after 30 min. Then a static scan of micro-PET/CT was performed 60 min later.

[2] = test system: PC3-PIP tumors; test: Micro-PET/CT blocking experiment with 2-PMPA, PC3-PIP tumor model; type: in vivo, mice; settings: identical methodology
Procedure: as §1, §2

[3] = test system: LNCaP tumor-bearing NOD/SCID mice; settings: mouse, in vivo
[4] = test system: LNCaP cells; test: Uptake and internalization in LNCaP cells; type: cell-based, human; settings: 120 min incubation, normalized to 10^6 cells
Procedure: LNCaP prostate cancer cell line obtained from the American Type Culture Collection (ATCC, Manassas, VA) was used for cell affinity studies. […] The supernatant was disposed, and the cell pellet was resuspended in a culture medium, and LNCaP cells (150,000 cells/well) were counted with a hemocytometer and seeded in poly-L-lysine-coated 24-well plates used in cell binding studies. The cells were then allowed to grow at 37 °C for 48 h. PC3-PIP cells provided by Professor Xiaoyuan Chen (Singapore) require additional Puromycin (2 µg/ml) in addition to the appealed culture conditions.

[5] = Radiochemical stability in PBS at 37 °C; type: physicochemical; settings: 2 h
Procedure: (§3) The radiochemical purity of samples incubated in PBS at each time point was determined using RP-HPLC. For the samples in human serum, a pretreatment step was applied. Briefly, the human serum samples underwent precipitation with acetonitrile, and the radiochemical purity of each supernatant aliquot was determined using RP-HPLC after centrifugation for 5 min at 10,000 rpm. The experiments were performed in triplicate.

[6] = Radiochemical stability in human serum at 37 °C; type: in vitro ADME; settings: 2 h
Procedure: as §3

[7] = test system: PC3-PIP tumor-bearing balb/c-nu mice; test: Biodistribution in PC3-PIP tumor model; type: in vivo; settings: mean ± SD (n=5)
Procedure: All animal experiments were performed with the approval of the institutional animal ethics committee. Male NOD/SCID mice (5 − 6 weeks old) implanted with LNCaP cells were used for imaging and biodistribution experiments as previously described. The mice were imaged or used in biodistribution studies once the tumor grew to 8 − 10 mm in diameter over a period of 4 − 5 weeks. At the same time, male balb/c-nu mice (5 − 6 weeks old) implanted with PC3-PIP cells were used as an alternative tumor model for imaging and biodistribution experiments.
To conduct biodistribution studies, male mice bearing LNCaP or PC3-PIP tumors with an average body weight of approximately 20 ± 5 g and a tumor diameter of 8 − 10 mm were administered a bolus injection of 2.5 MBq of the corresponding radioligand via the tail vein. After 30, 60, and 120 min, the mice were anesthetized with isoflurane and subsequently euthanized by CO2 asphyxiation. Blood was drawn, and the organs of interest were promptly harvested, blotted dry, and weighed. The radioactivity of the collected mouse organs was measured and expressed as the percentage of the injected dose per gram of tissue (%ID/g). Each group consisted of at least five mice.

[8] = target: T1, PSMA (Homo sapiens, UniProt Q04609); test: Competitive cell binding assay against [68Ga]Ga-PSMA-11 on LNCaP cells; settings: competition with [68Ga]Ga-PSMA-11, natGa-labeled standards, 1 h 37 °C
T1 construct: host or cells: LNCaP
T1 sequence (Q04609 whole entry): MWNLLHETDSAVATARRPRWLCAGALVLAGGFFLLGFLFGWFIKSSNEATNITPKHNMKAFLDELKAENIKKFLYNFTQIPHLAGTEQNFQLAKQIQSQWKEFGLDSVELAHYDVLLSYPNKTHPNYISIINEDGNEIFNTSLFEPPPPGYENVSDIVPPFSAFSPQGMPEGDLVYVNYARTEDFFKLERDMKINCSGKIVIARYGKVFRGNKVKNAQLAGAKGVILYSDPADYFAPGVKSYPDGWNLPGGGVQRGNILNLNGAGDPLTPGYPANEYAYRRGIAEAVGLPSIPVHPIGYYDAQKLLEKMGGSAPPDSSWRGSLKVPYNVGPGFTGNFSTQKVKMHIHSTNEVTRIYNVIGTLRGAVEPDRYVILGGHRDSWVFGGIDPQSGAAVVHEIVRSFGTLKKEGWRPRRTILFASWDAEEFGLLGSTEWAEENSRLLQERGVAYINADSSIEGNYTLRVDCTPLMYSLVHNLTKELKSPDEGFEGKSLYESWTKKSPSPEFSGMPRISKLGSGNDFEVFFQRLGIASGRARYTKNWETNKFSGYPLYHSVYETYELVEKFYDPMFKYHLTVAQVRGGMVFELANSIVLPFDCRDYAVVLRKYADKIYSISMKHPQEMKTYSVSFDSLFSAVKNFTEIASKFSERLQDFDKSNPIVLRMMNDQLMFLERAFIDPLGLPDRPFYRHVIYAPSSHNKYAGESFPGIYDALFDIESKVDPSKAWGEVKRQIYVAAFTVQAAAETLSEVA
Procedure: LNCaP prostate cancer cell line obtained from the American Type Culture Collection (ATCC, Manassas, VA) was used for cell affinity studies. The cells were grown in a meilunbio RPMI 1640 medium (ATCC modified) supplemented with 10% fetal bovine serum and 1% streptomycin/penicillin (Thermo Fisher Scientific, USA) at 37 °C in a humidified 5% CO2 atmosphere. Two days (48 ± 2 h) prior to in vitro experiments, the cells were harvested using trypsin-ethylenediaminetetraacetic acid (EDTA; 0.25% trypsin, 0.02% EDTA) in PBS and centrifuged. The supernatant was disposed, and the cell pellet was resuspended in a culture medium, and LNCaP cells (150,000 cells/well) were counted with a hemocytometer and seeded in poly-L-lysine-coated 24-well plates used in cell binding studies. The cells were then allowed to grow at 37 °C for 48 h. PC3-PIP cells provided by Professor Xiaoyuan Chen (Singapore) require additional Puromycin (2 µg/ml) in addition to the appealed culture conditions. Detailed information regarding uptake and internalization experiments can be found in the previous report.
In order to determine the binding affinity, a competitive cell binding assay was performed. […] The total radioactivity in each well was measured with a gamma counter. […]

O=C(O)CC[C@H](NC(=O)N[C@@H](CCCCN(CC(=O)NCCOCCOCCOCCOCCNC(=O)CN1CCN(CC(=O)O)CCN(CC(=O)O)CCN(CC(=O)O)CC1)C(=O)C1c2ccccc2-c2ccccc21)C(=O)O)C(=O)O.[68Ga] [[^68Ga]Ga-PP4-WD]
Radioactivity upon blocking with 2-PMPA [1]: substantially reduced radioactivity | Outcome of blocking imaging with 2-PMPA [2]: in concordance with those observed in the LNCaP tumor model | Renal uptake reduced by a factor compared to [68Ga]Ga-Flu-1 [3]: 40 | Renal uptake, fold less compared to [68Ga]Ga-Flu-1 [3]: tenfold | Bone uptake ([3]; 0.5 h): 0.36±0.09 %ID/g | Tumor uptake ([3]; 0.5 h): 33.45 ± 3.40 %ID/g | Bone uptake ([3]; 1 h): 0.39±0.22 %ID/g | Tumor uptake ([3]; 1 h): 39.28 ± 3.25 %ID/g | Bone uptake ([3]; 2 h): 0.26±0.06 %ID/g | Tumor uptake ([3]; 2 h): 25.75 ± 2.43 %ID/g | Internalization in LNCaP cells [4]: 9.36 ± 1.70% | Uptake in LNCaP cells [4]: 26.30 ± 2.06% | Radiochemical purity after incubation in PBS [5]: 97% | Radiochemical purity after incubation in human serum [6]: 96.83 ± 0.87% | Blood uptake ([7]; 30 min p.i.): 1.07±0.47 %ID/g | Bone uptake ([7]; 30 min p.i.): 0.41±0.17 %ID/g | Brain uptake ([7]; 30 min p.i.): 0.05±0.04 %ID/g | Heart uptake ([7]; 30 min p.i.): 0.39±0.26 %ID/g | Kidney uptake ([7]; 30 min p.i.): 17.85±4.66 %ID/g | Liver uptake ([7]; 30 min p.i.): 0.36±0.14 %ID/g | Lung uptake ([7]; 30 min p.i.): 0.99±0.22 %ID/g | Muscle uptake ([7]; 30 min p.i.): 0.36±0.25 %ID/g | Salivary uptake ([7]; 30 min p.i.): 0.46±0.16 %ID/g | Small int (small intestine) uptake ([7]; 30 min p.i.): 0.33±0.15 %ID/g | Spleen uptake ([7]; 30 min p.i.): 1.06±0.89 %ID/g | Stomach uptake ([7]; 30 min p.i.): 0.44±0.18 %ID/g | Tumor uptake ([7]; 30 min p.i.): 26.49±3.34 %ID/g | Blood uptake ([7]; 60 min p.i.): 0.19±0.05 %ID/g | Bone uptake ([7]; 60 min p.i.): 0.11±0.02 %ID/g | Brain uptake ([7]; 60 min p.i.): 0.02±0.01 %ID/g | Heart uptake ([7]; 60 min p.i.): 0.06±0.01 %ID/g | Kidney uptake ([7]; 60 min p.i.): 2.96±1.04 %ID/g | Liver uptake ([7]; 60 min p.i.): 0.16±0.03 %ID/g | Lung uptake ([7]; 60 min p.i.): 0.23±0.05 %ID/g | Muscle uptake ([7]; 60 min p.i.): 0.04±0.02 %ID/g | Salivary uptake ([7]; 60 min p.i.): 0.17±0.09 %ID/g | Small int (small intestine) uptake ([7]; 60 min p.i.): 0.1±0.04 %ID/g | Spleen uptake ([7]; 60 min p.i.): 0.22±0.05 %ID/g | Stomach uptake ([7]; 60 min p.i.): 0.09±0.02 %ID/g | Tumor uptake ([7]; 60 min p.i.): 27.43 ± 1.81 %ID/g | Blood uptake ([7]; 120 min p.i.): 0.17±0.04 %ID/g | Bone uptake ([7]; 120 min p.i.): 0.08±0.03 %ID/g | Brain uptake ([7]; 120 min p.i.): 0.01±0.01 %ID/g | Heart uptake ([7]; 120 min p.i.): 0.06±0.03 %ID/g | Kidney uptake ([7]; 120 min p.i.): 1.21±0.30 %ID/g | Liver uptake ([7]; 120 min p.i.): 0.14±0.05 %ID/g | Lung uptake ([7]; 120 min p.i.): 0.13±0.07 %ID/g | Muscle uptake ([7]; 120 min p.i.): 0.04±0.03 %ID/g | Salivary uptake ([7]; 120 min p.i.): 0.08±0.03 %ID/g | Small int (small intestine) uptake ([7]; 120 min p.i.): 0.07±0.03 %ID/g | Spleen uptake ([7]; 120 min p.i.): 0.13±0.10 %ID/g | Stomach uptake ([7]; 120 min p.i.): 0.06±0.03 %ID/g | Tumor uptake ([7]; 120 min p.i.): 19.42±4.00 %ID/g | IC50 [8]: 8.06 ± 0.91 nM
